Values of other authors, collected in patent publication US20220280598A1, “COMPLEMENT INHIBITOR DOSING REGIMENS” (Apellis Pharmaceuticals, Inc., priority 2019, published 2022).

Assays:
[1] = tested on: complement activation (alternative pathway); settings: alternative pathway-mediated erythrocyte lysis assay (WO2004/026328); cited from earlier work
[2] = tested on: complement activation; settings: relative to compstatin amidated at the C-terminus; published data; cited from earlier work

Compound | IC50 [1] [µM] | Activity over compstatin [2] [× more]
CC[C@H](C)[C@H](N)C(=O)N[C@H]1CSSC[C@@H](C(=O)N[C@H](C(N)=O)[C@@H](C)O)NC(=O)[C@H](CCCN=C(N)N)NC(=O)[C@H](Cc2cnc[nH]2)NC(=O)[C@H](Cc2cnc[nH]2)NC(=O)CNC(=O)[C@H](Cc2c[nH]c3ccccc23)NC(=O)[C@H](CC(=O)O)NC(=O)[C@H](CCC(N)=O)NC(=O)[C@H](C(C)C)NC(=O)[C@H](C(C)C)NC1=O [Compstatin, H-ICVVQDWGHHRCT-CONH2] | 12 | 
Ac-ICVVQDWGHHRCT-CONH2 [Ac-compstatin] |  | 3
